{"source": "patent US4960815A", "about": "“Isotopically-labeled polycyclic amine derivatives” (Warner-Lambert Company, priority 1990, dated 1990)", "target": "PCP receptors", "test": "Tritiated TCP binding, designated RBS1", "method": "Tritiated TCP binding, designated RBS1, was carried out essentially as described in J Pharmacol Exp Ther, 238, 739-748 (1986)."}
{"smiles": "c1csc(C2(N3CCCCC3)CCCCC2)c1", "note": "[TCP, 1-[1-(2-thienyl)cyclohexyl]piperidine]", "values": [{"measurement": "IC50", "result": 9, "unit": "nM"}]}
